We go through eight molecules from patent US7371364B2, “Cyclic peptide and imaging compound compositions and uses for targeted imaging and therapy” (Board of Regents, The University of Texas System, priority 2003, dated 2008).

Residues, ends and D or L forms follow the SMILES beside them. Some results are limits rather than exact numbers.

For data set [1], the system named is KS1767 tumors. The data set is described as follows: In vivo NIR imaging of subcutaneous KS1767 tumors with RGD imaging agent. Also on record: species or system mice. An excerpt:
Cy5.5-c(KRGDf; SEQ ID NO. 3) may be used in near infrared (NIR) imaging. Mice inoculated with KS1767 were used for in vivo NIR studies. The mice were four to six week-old athymic nude mice (18-22 g, Harlan Sprague Dawley, Inc. Indianapolis, Ind.) which were housed 5 per cage and fed with sterilized pellet chow (Harlan Sprague Dawley) and sterilized water. The animals were maintained in a pathogen-free mouse colony in the Department of Veterinary Medicine at the University of Texas M.D. Anderson Cancer Center. All experiments were performed in accordance with the guidelines of the Institutional Animal Care and Use Committee.
Tumor cells for use in the animals were harvested near confluence by incubation with 0.05% trypsin-EDTA. Cells were pelleted by centrifugation at 450×g for 5 minutes and resuspended in sterile PBS. […] cells/animal were implanted subcutaneously into the chest wall or hind legs of the mice. Imaging studies were performed when tumors reached 4-6 mm in average diameter.
(§1) In vivo fluorescence imaging was accomplished by illuminating the animal with light from a laser diode (35 mW) expanded to an approximate 8 cm diameter circular area. The fluorescent light re-emitted from the animal was collected by an image intensifier (model FS9910C, ITT Night Vision, Roanoke, Va.) lens-coupled to a CCD camera (model CH350, Photometrics, Tucson, Ariz.). The imaging was designed so that the field of view could be varied from 3×3 cm to over 12×12 cm by varying the image distance of the 50 mm lens used to focus the image onto the photocathode of the intensifier. The lens was fitted with a holographic notch-plus filter (660 nm center wavelength; Kaiser Optical Systems, Inc., Ann Arbor, Mich.) and a bandpass filter (710 nm center wavelength) to reject back-scattered and reflected excitation photons. Image acquisition was accomplished using V++ software (Digital Optics, Auckland, New Zealand) and the obtained images were stored in uncompressed tagged image file format (tiff). Data processing and analysis were accomplished using Matlab software (The MathWorks, Inc., Natick, Mass.). For all imaging sessions, the image acquisition parameters were kept constant, and each image required 800 ms of camera integration.
For dynamic in vivo fluorescence imaging, mice were anesthetized with an i.p. injection of 50 mg/kg pentobarbital, and a catheter was placed in the tail vein for i.v. injection of NIR dyes. A white-light image of the animal was obtained using a low-power lamp as a white light source with holographic and interference filters removed. Fluorescence images were then acquired as a function of time following administration of Cy5.5 (6 nmol per/mouse) or Cy5.5-c(KRGDf; SEQ ID NO. 3) (6 nmol per/mouse). […]

Data set [2] deals with KS1767 tumors. The data set is described as follows: Dynamic in vivo NIR imaging, tumor ROI versus normal muscle ROI. Also on record: species or system mice. As for the experimental part:
For dynamic in vivo fluorescence imaging, mice were anesthetized with an i.p. injection of 50 mg/kg pentobarbital, and a catheter was placed in the tail vein for i.v. injection of NIR dyes. A white-light image of the animal was obtained using a low-power lamp as a white light source with holographic and interference filters removed. Fluorescence images were then acquired as a function of time following administration of Cy5.5 (6 nmol per/mouse) or Cy5.5-c(KRGDf; SEQ ID NO. 3) (6 nmol per/mouse). For blocking studies, c(KRGDf; SEQ ID NO. 3) (600 nmol/mouse) was injected intravenously at 1 hr and 24 hr prior to the injection of Cy5.5-c(KRGDf; SEQ ID NO. 3). The acquisition time was 800 ms. Images were obtained every 6 seconds (s) for up to 20 minutes (min) following injection of each imaging agent. Each mouse was imaged again 24 hr after contrast injection.
Two regions of interest (ROI) were selected for quantitative analyses. One ROI was located entirely within the circumference of the tumor, and the other, of approximate equivalent size, defined a symmetric region of normal tissue located opposite the tumor site. (See FIG. 32A.) Utilizing Matlab software, the mean of the fluorescence intensity within each ROI was computed for every fluorescence image acquired. Data were acquired from the tumor ROI. (See FIG. 32B.) Data were acquired from normal muscle ROI. […] The symbols denote experimental measurements while the solid line denotes the corresponding least-squares fit. Animals were injected with Cy5.5-c(KRGDf; SEQ ID NO. 3) alone (6 nmol) (□), or Cy5.5-cc(KRGDf; SEQ ID NO. 3) 1 hr (∘) and 24 hr (⋄) after the injection of unconjugated c(KRGDf; SEQ ID NO. 3) peptide (600 nmol).

The next data set deals with KS1767 cells. The format is cell-based. Conditions: 1 h. As for the experimental part:
A Cell Adhesion Assay was additionally performed. KS1767 cells were seeded in DMEM/F12 culture medium supplemented with 10% fetal bovine serum for 24 hr. Cells (1×10^5) with different concentrations of c(KRGDf; SEQ ID NO. 3) or Cy5.5-c(KRGDf; SEQ ID NO. 3) were added to vitronectin-coated microliter wells under serum-free conditions and incubated at 37° C. for 1 hr. After washing steps, the bound cells were stained with 5% crystal violet, followed by addition of 0.1M HCl to each well. The concentrations of crystal violet were determined by UV/V is absorption at 627 nm. IC50 values were estimated from the dose-activity curves.

Another data set has as its target T1, αvβ3 integrin (Homo sapiens, UniProt P05106+P06756).
T1 construct: endogenous in cells; host or cells: KS1767 sarcoma cells
The data set is described as follows: In vitro blockage study of Cy5.5-c(KRGDf) binding to KS1767 cells (fluorescence microscopy). In kind it is cell-based. As for the experimental part: KS1767 sarcoma cells were maintained at 37° C. in a humidified atmosphere containing 5% CO2 in Dulbecco's Modified Eagle's Medium/Nutrient Mixture F-12 Ham (DMEM/F12) and 10% FBS (Gibco, Grand Island, N.Y.).
Cells were seeded on cover slips in 24-well plates (Becton Dickinson Labware, Franklin Lakes, N.J.) and incubated in DMEM/F12 culture medium (0.5 ml/well) overnight. Unconjugated c(KRGDf; SEQ ID NO. 3) was added to the culture medium at various concentrations. Cy5.5-c(KRGDf; SEQ ID NO. 3) was added one hour later to each well at a concentration of 6 μM. Cells were washed twice with PBS and incubated in a solution of Sytox Green in 95% ethyl alcohol (1 μM, Molecular Probe, Eugene, Oreg.) for 15 minutes to fix and stain cell nuclei. Cells were washed again with PBS and the cover slips were mounted for microscopic examination using a DMR microscope (Leica Microsystems Inc., Bannockburn, Ill.). The microscope was equipped with a 75W Xenon lamp, 775 nm/845 nm, 560 nm/645 nm, and 480 nm/535 nm (Excitation/emission) filters (Chroma Technology Corp., Brattleboro, Vt.), a Hamamatsu B/W Chilled CCD Camera (Hamamatsu Photonics K.K., Hamamatsu City, Japan), and an Image-Pro Plus 4.5.1 software (Media Cybernetics, Silver Spring, Md.). In the multiple staining images, Cy5.5 was pseudocolored red and Sytox Green was green.

Data set [3] is described as follows: Stability assay in serum-containing culture medium (HPLC). The format is in vitro ADME. Particulars: 25° C.; for Degradation in culture medium: 3 hours. The procedure: Each test peptide was incubated in a serum-containing culture medium (Dulbecco's Modified Eagle's Medium/Nutrient Mixture F-12 Ham and 10% FBS) (1 mg/ml) at 25° C. At various time intervals, aliquots of peptide solution (50 μL) were withdrawn and subjected to HPLC analysis. The percentage of remaining intact peptide was recorded as a function of time.

Data set [4] has as its system integrin-positive M21 melanoma. The data set is described as follows: In vivo NIR imaging of human melanoma xenograft, integrin-positive. Details: species or system mice. Particulars: for Visualization of tumor in NIR image: M21 melanoma, 24 hr after i.v. injection, 3 nmol/mouse.
Excerpt: as §1
(A xenograft is tissue or cells of one species grown in another, often human tumour cells in immunodeficient mice.)

For data set [5], the system named is integrin-negative M21-L melanoma. The data set is described as follows: In vivo NIR imaging of human melanoma xenograft, integrin-negative. Details: species or system mice.
Excerpt: as §1

In data set [6] the target is αvβ3 integrin (on KS1767 cells) (UniProt P06756). The data set is described as follows: cell-based or functional assay.
Sequence of αvβ3 integrin (on KS1767 cells) (P06756 31-1048, chain 1 of 2): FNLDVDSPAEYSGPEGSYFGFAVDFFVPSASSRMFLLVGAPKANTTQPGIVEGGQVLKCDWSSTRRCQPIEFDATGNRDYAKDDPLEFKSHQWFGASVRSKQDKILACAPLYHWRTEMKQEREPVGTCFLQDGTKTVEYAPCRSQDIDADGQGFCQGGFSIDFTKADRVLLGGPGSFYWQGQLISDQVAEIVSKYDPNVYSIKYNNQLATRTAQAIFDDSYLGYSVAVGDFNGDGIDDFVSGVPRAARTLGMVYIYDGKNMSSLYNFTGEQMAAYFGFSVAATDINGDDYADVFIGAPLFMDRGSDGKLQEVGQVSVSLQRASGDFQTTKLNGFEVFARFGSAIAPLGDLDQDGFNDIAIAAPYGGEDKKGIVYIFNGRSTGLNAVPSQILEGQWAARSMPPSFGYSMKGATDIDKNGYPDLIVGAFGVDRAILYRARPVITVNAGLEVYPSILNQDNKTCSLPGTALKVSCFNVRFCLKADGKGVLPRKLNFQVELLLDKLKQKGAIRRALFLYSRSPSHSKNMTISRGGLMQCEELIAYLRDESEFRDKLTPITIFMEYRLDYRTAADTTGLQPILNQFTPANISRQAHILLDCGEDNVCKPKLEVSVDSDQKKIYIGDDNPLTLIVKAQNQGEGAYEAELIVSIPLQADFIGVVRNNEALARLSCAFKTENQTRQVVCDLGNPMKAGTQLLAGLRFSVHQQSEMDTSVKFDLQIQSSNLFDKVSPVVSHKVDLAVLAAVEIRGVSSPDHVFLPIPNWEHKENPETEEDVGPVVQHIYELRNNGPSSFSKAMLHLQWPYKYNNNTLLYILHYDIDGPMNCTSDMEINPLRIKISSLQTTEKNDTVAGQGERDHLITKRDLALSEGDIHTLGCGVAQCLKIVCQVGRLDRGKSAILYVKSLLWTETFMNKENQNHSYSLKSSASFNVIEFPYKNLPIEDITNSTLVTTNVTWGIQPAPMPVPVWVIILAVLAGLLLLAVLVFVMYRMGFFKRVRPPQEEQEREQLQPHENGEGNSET
Sequence of αvβ3 integrin (on KS1767 cells) (P05106 27-788, chain 2 of 2, further chain): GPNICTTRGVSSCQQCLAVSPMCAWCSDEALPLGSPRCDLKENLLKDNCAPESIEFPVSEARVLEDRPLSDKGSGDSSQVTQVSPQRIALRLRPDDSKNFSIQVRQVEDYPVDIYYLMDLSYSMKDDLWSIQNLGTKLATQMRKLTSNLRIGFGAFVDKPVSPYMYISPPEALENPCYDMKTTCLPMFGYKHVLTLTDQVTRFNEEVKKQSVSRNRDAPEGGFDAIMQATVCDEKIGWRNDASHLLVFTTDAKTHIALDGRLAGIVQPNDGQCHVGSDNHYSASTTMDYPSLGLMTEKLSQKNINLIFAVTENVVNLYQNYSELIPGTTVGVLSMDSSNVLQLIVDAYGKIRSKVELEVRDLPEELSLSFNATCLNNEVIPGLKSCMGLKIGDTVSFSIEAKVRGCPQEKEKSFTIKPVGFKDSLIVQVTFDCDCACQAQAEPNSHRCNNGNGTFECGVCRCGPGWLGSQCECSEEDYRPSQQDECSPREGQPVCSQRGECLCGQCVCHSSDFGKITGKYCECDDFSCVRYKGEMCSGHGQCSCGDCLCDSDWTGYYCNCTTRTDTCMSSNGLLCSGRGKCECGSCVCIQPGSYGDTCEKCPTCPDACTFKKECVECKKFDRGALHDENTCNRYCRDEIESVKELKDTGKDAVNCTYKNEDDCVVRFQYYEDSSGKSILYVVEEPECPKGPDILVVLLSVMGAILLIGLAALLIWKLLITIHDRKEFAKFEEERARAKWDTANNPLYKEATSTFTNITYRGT

A word on the IC50: it is the point on the concentration scale where inhibition reaches its midpoint. High values mean a need for much substance, low ones inhibition by little substance.

T1 sequence (P06756 31-889 limits assumed): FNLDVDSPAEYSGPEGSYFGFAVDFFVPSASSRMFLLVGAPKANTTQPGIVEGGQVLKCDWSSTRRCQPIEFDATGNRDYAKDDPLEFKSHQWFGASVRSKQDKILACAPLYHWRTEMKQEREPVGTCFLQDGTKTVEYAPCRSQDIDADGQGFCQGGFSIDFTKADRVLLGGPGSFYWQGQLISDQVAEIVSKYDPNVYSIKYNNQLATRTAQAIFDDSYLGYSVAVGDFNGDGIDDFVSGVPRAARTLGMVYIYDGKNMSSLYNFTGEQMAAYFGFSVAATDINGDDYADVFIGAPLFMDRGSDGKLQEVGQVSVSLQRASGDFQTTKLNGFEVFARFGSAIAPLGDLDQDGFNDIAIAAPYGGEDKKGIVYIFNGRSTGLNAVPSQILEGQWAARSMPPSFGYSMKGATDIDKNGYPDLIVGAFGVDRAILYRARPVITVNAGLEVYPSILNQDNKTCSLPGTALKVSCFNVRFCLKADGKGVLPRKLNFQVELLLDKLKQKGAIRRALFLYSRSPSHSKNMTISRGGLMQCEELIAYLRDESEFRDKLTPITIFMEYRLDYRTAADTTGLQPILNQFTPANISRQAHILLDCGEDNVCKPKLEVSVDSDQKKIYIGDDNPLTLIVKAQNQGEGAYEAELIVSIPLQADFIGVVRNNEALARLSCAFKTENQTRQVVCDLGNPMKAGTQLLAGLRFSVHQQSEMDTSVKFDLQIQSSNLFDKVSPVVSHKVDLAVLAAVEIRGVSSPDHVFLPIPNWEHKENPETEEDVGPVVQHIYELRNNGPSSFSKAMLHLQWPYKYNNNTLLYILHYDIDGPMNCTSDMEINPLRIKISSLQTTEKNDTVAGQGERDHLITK
T1 sequence (P06756 891-1048 partner limits assumed): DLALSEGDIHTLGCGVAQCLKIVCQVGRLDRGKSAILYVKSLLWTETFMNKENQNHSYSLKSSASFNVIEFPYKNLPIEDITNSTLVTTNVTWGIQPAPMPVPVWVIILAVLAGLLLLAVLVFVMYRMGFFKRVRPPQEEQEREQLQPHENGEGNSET
T1 sequence (P05106 27-788): as the sequence (P05106 27-788, chain 2 of 2, further chain) above

On to `CC[N+]1=C(C=CC=CC=C2N(CCCCCC(=O)NCCCC[C@@H]3NC(=O)[C@@H](Cc4ccccc4)NC(=O)[C@H](CC(=O)O)NC(=O)CNC(=O)[C@H](CCCNC(=N)N)NC3=O)c3ccc4c(S(=O)(=O)O)cc(S(=O)(=O)O)cc4c3C2(C)C)C(C)(C)c2c1ccc1c(S(=O)(=O)[O-])cc(S(=O)(=O)O)cc21` [Cy5.5-c(KRGDf; SEQ ID NO. 3)], for which the “Localization in excised tumor and adjacent muscle tissue (fluorescence microscopy)” value in the data set on KS1767 tumors [1] (ex vivo, KS1767 tumor excised 48 hr after i.v. injection) is recorded as “localized to the tumor, but not to the muscle cells”. In addition, in the data set on KS1767 tumors [1] (subcutaneous KS1767 tumors, i.v. 6 nmol/mouse, image 24 hours after injection), the “Tumor targeting / uptake in NIR image” value is “clearly showed targeting”. The “Rate of uptake in KS1767 tumors compared with muscle” value with KS1767 tumors [2] (6 nmol/mouse i.v., dynamic imaging up to 20 min) is “faster”. Besides, the “Rate of uptake in the tumor after preinjection of c(KRGDf)” value with KS1767 tumors [2] (c(KRGDf) 600 nmol, interval between injections 24 hr) is listed as “partially recovered”. This molecule also yielded a half-inhibitory concentration (IC50) with KS1767 cells of roughly 1110 nM. Moreover, the “In vitro binding to αvβ3” value on αvβ3 integrin (KS1767 cells, 6 μM imaging agent) is recorded as “demonstrated”.
Regarding `CC(C)C[C@@H]1NC(=O)[C@H]([C@@H](C)O)NC(=O)[C@H](Cc2ccccc2)NC(=O)CNC(=O)[C@H](Cc2c[nH]c3ccccc23)NC(=O)[C@H](Cc2c[nH]cn2)NC(=O)[C@H]([C@@H](C)O)NC(=O)[C@H]([C@@H](C)O)NC(=O)[C@@H](N)CSSC[C@@H](C(N)=O)NC1=O` [c(CTTHWGFTLC; SEQ ID NO. 1), reference compound] (HELM PEPTIDE1{C.T.T.H.W.G.F.T.L.C.[am]}$PEPTIDE1,PEPTIDE1,1:R3-10:R3$$$V2.0), the “Degradation in culture medium” value in data set [3] is on record as “degrades completely”. Besides, in data set [3] (serum-containing culture medium (DMEM/F-12 Ham with 10% FBS), after 3 hours, read-out: Peptide degraded), the metabolised at 3 h, 1 mg/ml is greater than 90%.
Regarding `CC1(C)C(/C=C/C2=C(Oc3ccc(S(=O)(=O)O)cc3)C(=C/C=C3/N(CCCCS(=O)(=O)O)c4ccc(S(=O)(=O)[O-])cc4C3(C)C)/CCC2)=[N+](CCCCCC(=O)O)c2ccc(S(=O)(=O)O)cc21` [IRDye800, reference compound], the “Visualization of tumor in NIR image” value in data set [4] was “did not have detectable signal”.
For `N=C(N)NCCC[C@@H]1NC(=O)[C@H](CCCCN)NC(=O)[C@@H](Cc2ccccc2)NC(=O)[C@H](CC(=O)O)NC(=O)CNC1=O` [c(KRGDf; SEQ ID NO. 3), cyclo(Lys-Arg-Gly-Asp-phe), reference compound], the “Effect of pretreatment on uptake of fluorophores in KS1767 tumors” value in the data set with KS1767 tumors [1] (100-fold c(KRGDf) injected 1 hour before Cy5.5-c(KRGDf)) was “blocked the uptake”. The “Effect of preinjection on uptake of Cy5.5-c(KRGDf) in the tumor” value in the data set on KS1767 tumors [2] (c(KRGDf) 600 nmol, interval between injections 1 hr) is “blocked the uptake”. In the data set on KS1767 cells, this molecule gave an IC50 of roughly 2470 nM. Also, the “Blockage of Cy5.5-c(KRGDf) binding to KS1767 cells” value on αvβ3 integrin (unconjugated peptide added one hour before 6 μM Cy5.5-c(KRGDf)) was “dose-dependent blockage”.
Take `CC1(C)C(=CC=C2CCCC(C=CC3=[N+](CCCCS(=O)(=O)O)c4ccc(S(=O)(=O)[O-])cc4C3(C)C)=C2Oc2ccc(S(=O)(=O)O)cc2)N(CCCCCC(=O)NCCCC[C@@H]2NC(=O)[C@@H](Cc3ccccc3)NC(=O)[C@H](CC(=O)O)NC(=O)CNC(=O)[C@H](CCCNC(=N)N)NC2=O)c2ccc(S(=O)(=O)O)cc21` [IRDye800-c(KRGDf; SEQ ID NO. 3)]: the “Visualization of tumor in NIR image” value in data set [5] (M21-L melanoma, 24 hr after i.v. injection, 3 nmol/mouse) is listed as “not”; in data set [4], “clearly visualized”. In addition, the Tumor-to-background ratio in data set [5] (mice with M21-L tumors, from fluorescence intensity in region-of-interest) worked out at 1.1; in data set [4] (mice with M21 tumors, from fluorescence intensity in region-of-interest), 1.7. In addition, the IC50 in the data set on KS1767 cells is roughly 2580 nM.
Cy5.5-c(KRGDf; SEQ ID NO. 3) (peptide) displayed an IC50 of inhibition of adhesion of KS1767 cells to vitronectin-coated microplate wells in data set [6] of 1110 nM.
As for “cyclo(Lys-Arg-Gly-Asp-phe), c(KRGDf; SEQ ID NO. 3) (peptide)”, in data set [6], the IC50 of inhibition of adhesion of KS1767 cells to vitronectin-coated microplate wells is 2470 nM.
In the case of `CC(C)C[C@@H]1NC(=O)[C@H]([C@@H](C)O)NC(=O)[C@H](Cc2ccccc2)NC(=O)CNC(=O)[C@H](Cc2c[nH]c3ccccc23)NC(=O)[C@H](Cc2c[nH]cn2)NC(=O)[C@H]([C@@H](C)O)NC(=O)[C@H]([C@@H](C)O)NC(=O)[C@H](C)NC(=O)CCNC1=O` [c(ATTHWGFTLβA; SEQ ID NO. 2)] (HELM PEPTIDE1{A.T.T.H.W.G.F.T.L.[bAla]}$PEPTIDE1,PEPTIDE1,1:R1-10:R2$$$V2.0; bridges inferred), in data set [3], the “Degradation in culture medium” value was “no apparent degradation”. In addition, the “Degradation over the course of the study” value in data set [3] (5 days) is given as “no degradation”.
